Measurements: patent US6355799B1, “Substituted benzene compounds, process for their preparation, and herbicidal and defoliant compositions containing them” (ISK Americas Incorporated, priority 1997, dated 2002)

Key:
Type in all cases: in vivo
[1] = tested on: redroot pigweed (Amaranthus retroflexus, AMARE); assay: Pre-emerge test, greenhouse herbicide activity screening; conditions: rating scale 0-100, 14 days after application
Procedure, shortened: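 Visual ratings on a 0-100 scale (0 no damage, 100 all plants dead) were taken at 14 days after treatment. Rates of 15-1000 g ai/ha in acetone, 187 l/ha, were sprayed onto soil one day after planting (pre-emerge) or onto 2-3 leaf plants with 0.25% v/v surfactant (post-emerge).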

[2] = tested on: ivyleaf morningglory (Ipomoea hederacea, IPOHE); assay: Post-emerge test, greenhouse herbicide activity screening; conditions: rating scale 0-100 (0 no damage, 100 complete death), 14 days after application
Procedure, shortened: (§1)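 Sandy loam pots; pre-emerge: sown 1 d pre-spray, surface-watered after, then bottom-watered. Post-emerge: sown 8–21 d before, 2–3 leaf stage, + 0.25% v/v NIS, bottom-watered. Acetone, 187 l/ha track spray, 15–1000 g ai/ha. 0–100 injury score, day 14.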

[3] = tested on: sicklepod (Cassia obtusifolia, CASOB); assay: as above; conditions: rating scale 0-100 (0 no damage, 100 complete death), 14 days after application
Procedure, shortened: as §1

[4] = tested on: green foxtail (Setaria viridis, SETVI); assay: as above; conditions: rating scale 0-100 (0 no damage, 100 complete death), 14 days after application
Procedure, shortened: as §1

[5] = tested on: lambsquarters (Chenopodium album, CHEAL); assay: as above; conditions: rating scale 0-100 (0 no damage, 100 complete death), 14 days after application
Procedure, shortened: as §1

[6] = tested on: johnsongrass (Sorghum halepense, SORHA); assay: as above; conditions: rating scale 0-100 (0 no damage, 100 complete death), 14 days after application
Procedure, shortened: as §1

[7] = tested on: common ragweed (Ambrosia artemisizfolia L., AMBEL); assay: as above; conditions: rating scale 0-100 (0 no damage, 100 complete death), 14 days after application
Procedure, shortened: as §1

[8] = tested on: large crabgrass (Digitaria sanguinalis, DIGSA); assay: as above; conditions: rating scale 0-100 (0 no damage, 100 complete death), 14 days after application
Procedure, shortened: as §1

[9] = tested on: barnyardgrass (Echinochloa crus-galli, ECHCG); assay: as above; conditions: rating scale 0-100 (0 no damage, 100 complete death), 14 days after application
Procedure, shortened: as §1

[10] = tested on: velvetleaf (Abutilon theophrasti, ABUTH); assay: as above; conditions: rating scale 0-100 (0 no damage, 100 complete death), 14 days after application
Procedure, shortened: as §1

[11] = tested on: redroot pigweed (Amaranthus retroflexus, AMARE); assay: as above; conditions: rating scale 0-100 (0 no damage, 100 complete death), 14 days after application
Procedure, shortened: as §1

[12] = tested on: field corn (Zea mays L., var. Dekalb 535, CORN); assay: Pre-emerge test, crop safety; conditions: rating scale 0-100, 14 days after application
Procedure, shortened: (§2)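 Plants grown in 10 cm pots of sandy loam mix received acetone-dissolved compounds through a moving flat-fan nozzle. Doses ranged from 15 to 1000 g ai/ha. Pre-emerge pots were seeded one day earlier, post-emerge pots 8–21 days earlier. Fourteen days on, each pot was graded 0–100 for damage.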

[13] = tested on: upland rice (Oryza sp., var. Tebonnet, RICE); assay: Pre-emerge test, crop safety; conditions: rating scale 0-100, 14 days after application
Procedure, shortened: as §2

[14] = tested on: field corn (Zea mays L., var. Dekalb 535, CORN); assay: Post-emerge test, crop safety; conditions: rating scale 0-100 (0 no damage, 100 complete death), 14 days after application
Procedure, shortened: as §1

[15] = tested on: upland rice (Oryza sp., var. Tebonnet, RICE); assay: Post-emerge test, crop safety; conditions: rating scale 0-100 (0 no damage, 100 complete death), 14 days after application
Procedure, shortened: as §1

[16] = tested on: ivyleaf morningglory (Ipomoea hederacea, IPOHE); assay: Pre-emerge test, greenhouse herbicide activity screening; conditions: rating scale 0-100, 14 days after application
Procedure, shortened: as §1

[17] = tested on: sicklepod (Cassia obtusifolia, CASOB); assay: as above; conditions: rating scale 0-100, 14 days after application
Procedure, shortened: as §1

[18] = tested on: green foxtail (Setaria viridis, SETVI); assay: as above; conditions: rating scale 0-100, 14 days after application
Procedure, shortened: as §1

[19] = tested on: lambsquarters (Chenopodium album, CHEAL); assay: as above; conditions: rating scale 0-100, 14 days after application
Procedure, shortened: as §1

[20] = tested on: johnsongrass (Sorghum halepense, SORHA); assay: as above; conditions: rating scale 0-100, 14 days after application
Procedure, shortened: as §1

[21] = tested on: large crabgrass (Digitaria sanguinalis, DIGSA); assay: as above; conditions: rating scale 0-100, 14 days after application
Procedure, shortened: as §1

[22] = tested on: barnyardgrass (Echinochloa crus-galli, ECHCG); assay: as above; conditions: rating scale 0-100, 14 days after application
Procedure, shortened: as §1

[23] = tested on: velvetleaf (Abutilon theophrasti, ABUTH); assay: as above; conditions: rating scale 0-100, 14 days after application
Procedure, shortened: as §1

CCCOC(=O)C(Cl)Cc1c(OC)c(Cl)cc(F)c1-n1c(=O)cc(C(F)(F)F)n(C)c1=O (single isomer, unassigned) [14-6]
35: Post-emerge phytotoxicity rating RICE (crop damage) ([15]; Rate 250 g ai/ha)
95: Post-emerge Herbicidal Activity, phytotoxicity rating AMARE ([11]; Rate 63 g ai/ha)
40: Post-emerge Herbicidal Activity, phytotoxicity rating AMBEL ([7]; Rate 63 g ai/ha)
20: Pre-emerge herbicidal activity, phytotoxicity rating IPOHE ([16]; 250 g ai/ha) | Pre-emerge herbicidal activity, phytotoxicity rating CHEAL ([19]; 63 g ai/ha)
0: Pre-emerge phytotoxicity rating, crop damage CORN ([12]; 63 g ai/ha) | Post-emerge phytotoxicity rating RICE (crop damage) ([15]; Rate 63 g ai/ha) | Pre-emerge herbicidal activity, phytotoxicity rating SORHA ([20]; 63 g ai/ha) | Pre-emerge herbicidal activity, phytotoxicity rating ECHCG ([22]; 63 g ai/ha)
15: Pre-emerge phytotoxicity rating, crop damage RICE ([13]; 63 g ai/ha)
50: Post-emerge Herbicidal Activity, phytotoxicity rating CASOB ([3]; Rate 63 g ai/ha) | Post-emerge Herbicidal Activity, phytotoxicity rating SORHA ([6]; Rate 63 g ai/ha) | Post-emerge Herbicidal Activity, phytotoxicity rating DIGSA ([8]; Rate 63 g ai/ha) | Pre-emerge phytotoxicity rating, crop damage RICE ([13]; 250 g ai/ha) | Post-emerge phytotoxicity rating CORN (crop damage) ([14]; Rate 63 g ai/ha)
100: Pre-emerge herbicidal activity, phytotoxicity rating AMARE ([1]; 63 g ai/ha) | Pre-emerge herbicidal activity, phytotoxicity rating AMARE ([1]; 250 g ai/ha) | Post-emerge Herbicidal Activity, phytotoxicity rating IPOHE ([2]; Rate 250 g ai/ha) | Post-emerge Herbicidal Activity, phytotoxicity rating CASOB ([3]; Rate 250 g ai/ha) | Post-emerge Herbicidal Activity, phytotoxicity rating CHEAL ([5]; Rate 250 g ai/ha) | Post-emerge Herbicidal Activity, phytotoxicity rating ECHCG ([9]; Rate 250 g ai/ha) | Post-emerge Herbicidal Activity, phytotoxicity rating ABUTH ([10]; Rate 250 g ai/ha) | Post-emerge Herbicidal Activity, phytotoxicity rating AMARE ([11]; Rate 250 g ai/ha) | Pre-emerge herbicidal activity, phytotoxicity rating SETVI ([18]; 250 g ai/ha) | Pre-emerge herbicidal activity, phytotoxicity rating CHEAL ([19]; 250 g ai/ha) | Pre-emerge herbicidal activity, phytotoxicity rating DIGSA ([21]; 250 g ai/ha) | Pre-emerge herbicidal activity, phytotoxicity rating ABUTH ([23]; 250 g ai/ha)
70: Post-emerge Herbicidal Activity, phytotoxicity rating IPOHE ([2]; Rate 63 g ai/ha) | Pre-emerge herbicidal activity, phytotoxicity rating ECHCG ([22]; 250 g ai/ha)
99: Post-emerge Herbicidal Activity, phytotoxicity rating ECHCG ([9]; Rate 63 g ai/ha)
10: Pre-emerge herbicidal activity, phytotoxicity rating IPOHE ([16]; 63 g ai/ha) | Pre-emerge herbicidal activity, phytotoxicity rating SETVI ([18]; 63 g ai/ha)
65: Post-emerge Herbicidal Activity, phytotoxicity rating SORHA ([6]; Rate 250 g ai/ha)
60: Post-emerge phytotoxicity rating CORN (crop damage) ([14]; Rate 250 g ai/ha)
90: Post-emerge Herbicidal Activity, phytotoxicity rating ABUTH ([10]; Rate 63 g ai/ha) | Pre-emerge herbicidal activity, phytotoxicity rating DIGSA ([21]; 63 g ai/ha)
30: Post-emerge Herbicidal Activity, phytotoxicity rating SETVI ([4]; Rate 63 g ai/ha) | Pre-emerge herbicidal activity, phytotoxicity rating CASOB ([17]; 63 g ai/ha) | Pre-emerge herbicidal activity, phytotoxicity rating CASOB ([17]; 250 g ai/ha) | Pre-emerge herbicidal activity, phytotoxicity rating SORHA ([20]; 250 g ai/ha) | Pre-emerge herbicidal activity, phytotoxicity rating ABUTH ([23]; 63 g ai/ha)
75: Post-emerge Herbicidal Activity, phytotoxicity rating DIGSA ([8]; Rate 250 g ai/ha)
5: Pre-emerge phytotoxicity rating, crop damage CORN ([12]; 250 g ai/ha)
80: Post-emerge Herbicidal Activity, phytotoxicity rating SETVI ([4]; Rate 250 g ai/ha) | Post-emerge Herbicidal Activity, phytotoxicity rating CHEAL ([5]; Rate 63 g ai/ha) | Post-emerge Herbicidal Activity, phytotoxicity rating AMBEL ([7]; Rate 250 g ai/ha)

COc1c(Cl)cc(F)c(-n2c(=O)cc(C(F)(F)F)n(C)c2=O)c1CC(Cl)C(=O)OCC(C)C (single isomer, unassigned) [14-14]
100: Pre-emerge herbicidal activity, phytotoxicity rating AMARE ([1]; 63 g ai/ha) | Pre-emerge herbicidal activity, phytotoxicity rating AMARE ([1]; 250 g ai/ha) | Post-emerge Herbicidal Activity, phytotoxicity rating DIGSA ([8]; Rate 250 g ai/ha) | Post-emerge Herbicidal Activity, phytotoxicity rating ECHCG ([9]; Rate 63 g ai/ha) | Post-emerge Herbicidal Activity, phytotoxicity rating ECHCG ([9]; Rate 250 g ai/ha) | Post-emerge Herbicidal Activity, phytotoxicity rating ABUTH ([10]; Rate 250 g ai/ha) | Post-emerge Herbicidal Activity, phytotoxicity rating AMARE ([11]; Rate 250 g ai/ha) | Pre-emerge herbicidal activity, phytotoxicity rating CHEAL ([19]; 250 g ai/ha)
30: Post-emerge Herbicidal Activity, phytotoxicity rating IPOHE ([2]; Rate 63 g ai/ha) | Post-emerge phytotoxicity rating RICE (crop damage) ([15]; Rate 250 g ai/ha)
60: Post-emerge Herbicidal Activity, phytotoxicity rating CASOB ([3]; Rate 250 g ai/ha) | Pre-emerge herbicidal activity, phytotoxicity rating CHEAL ([19]; 63 g ai/ha)
90: Post-emerge Herbicidal Activity, phytotoxicity rating CHEAL ([5]; Rate 250 g ai/ha) | Post-emerge Herbicidal Activity, phytotoxicity rating DIGSA ([8]; Rate 63 g ai/ha) | Pre-emerge herbicidal activity, phytotoxicity rating DIGSA ([21]; 250 g ai/ha)
0: Post-emerge Herbicidal Activity, phytotoxicity rating CASOB ([3]; Rate 63 g ai/ha) | Post-emerge Herbicidal Activity, phytotoxicity rating SORHA ([6]; Rate 63 g ai/ha) | Pre-emerge phytotoxicity rating, crop damage CORN ([12]; 63 g ai/ha) | Pre-emerge phytotoxicity rating, crop damage CORN ([12]; 250 g ai/ha) | Pre-emerge phytotoxicity rating, crop damage RICE ([13]; 63 g ai/ha) | Post-emerge phytotoxicity rating RICE (crop damage) ([15]; Rate 63 g ai/ha) | Pre-emerge herbicidal activity, phytotoxicity rating IPOHE ([16]; 63 g ai/ha) | Pre-emerge herbicidal activity, phytotoxicity rating CASOB ([17]; 63 g ai/ha) | Pre-emerge herbicidal activity, phytotoxicity rating CASOB ([17]; 250 g ai/ha) | Pre-emerge herbicidal activity, phytotoxicity rating SETVI ([18]; 63 g ai/ha) | Pre-emerge herbicidal activity, phytotoxicity rating SORHA ([20]; 63 g ai/ha) | Pre-emerge herbicidal activity, phytotoxicity rating SORHA ([20]; 250 g ai/ha) | Pre-emerge herbicidal activity, phytotoxicity rating ECHCG ([22]; 63 g ai/ha) | Pre-emerge herbicidal activity, phytotoxicity rating ABUTH ([23]; 63 g ai/ha)
10: Post-emerge phytotoxicity rating CORN (crop damage) ([14]; Rate 63 g ai/ha) | Pre-emerge herbicidal activity, phytotoxicity rating ECHCG ([22]; 250 g ai/ha)
50: Post-emerge Herbicidal Activity, phytotoxicity rating IPOHE ([2]; Rate 250 g ai/ha) | Post-emerge Herbicidal Activity, phytotoxicity rating SETVI ([4]; Rate 63 g ai/ha) | Post-emerge Herbicidal Activity, phytotoxicity rating CHEAL ([5]; Rate 63 g ai/ha) | Post-emerge Herbicidal Activity, phytotoxicity rating ABUTH ([10]; Rate 63 g ai/ha) | Post-emerge Herbicidal Activity, phytotoxicity rating AMARE ([11]; Rate 63 g ai/ha) | Post-emerge phytotoxicity rating CORN (crop damage) ([14]; Rate 250 g ai/ha) | Pre-emerge herbicidal activity, phytotoxicity rating SETVI ([18]; 250 g ai/ha) | Pre-emerge herbicidal activity, phytotoxicity rating DIGSA ([21]; 63 g ai/ha)
70: Post-emerge Herbicidal Activity, phytotoxicity rating SETVI ([4]; Rate 250 g ai/ha) | Post-emerge Herbicidal Activity, phytotoxicity rating AMBEL ([7]; Rate 63 g ai/ha) | Post-emerge Herbicidal Activity, phytotoxicity rating AMBEL ([7]; Rate 250 g ai/ha)
20: Post-emerge Herbicidal Activity, phytotoxicity rating SORHA ([6]; Rate 250 g ai/ha) | Pre-emerge phytotoxicity rating, crop damage RICE ([13]; 250 g ai/ha) | Pre-emerge herbicidal activity, phytotoxicity rating IPOHE ([16]; 250 g ai/ha) | Pre-emerge herbicidal activity, phytotoxicity rating ABUTH ([23]; 250 g ai/ha)
